The subject of this test is P388 leukemia ip, CD2F1 mice, survival T/C. The test can be described thus: NCI In Vivo Anticancer Drug Screen. Data for tumor model P388 Leukemia (intraperitoneal) in CD2F1 (CDF1) mice. As to conditions: endpoint: median survival time, higher = longer survival. Put shortly: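 Mice carrying the transplanted tumor received test compound or vehicle. Survival was recorded in each group, and the value is the treated-group measurement divided by that of the vehicle-treated control group.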

Setting [1] is: dose: 25.0 mg/kg/injection, schedule: Q01DX005 (ip), vehicle: saline with Tween-80.
The mark [2] stands for this setting: dose: 50.0 mg/kg/injection, schedule: Q01DX005 (ip), vehicle: saline with Tween-80.
[3] abbreviates: dose: 50.0 mg/kg/injection, schedule: Q01DX009 (ip), vehicle: saline with Tween-80.
[4] abbreviates: dose: 100.0 mg/kg/injection, schedule: Q01DX009 (ip), vehicle: saline with Tween-80.
Where [5] appears, read: dose: 50.0 mg/kg/injection, schedule: Q01DX005 (ip), vehicle: saline.
Where [6] appears, read: dose: 100.0 mg/kg/injection, schedule: Q01DX005 (ip), vehicle: saline.
The mark [7] stands for this setting: dose: 60.0 mg/kg/injection, schedule: Q01DX005 (ip), vehicle: saline with Tween-80.
Setting [8] is: dose: 120.0 mg/kg/injection, schedule: Q01DX005 (ip), vehicle: saline with Tween-80.
Setting [9] is: dose: 240.0 mg/kg/injection, schedule: Q01DX005 (ip), vehicle: saline with Tween-80.
[10] abbreviates: dose: 50.0 mg/kg/injection, schedule: Q01DX005 (ip), vehicle: Klucel (hydroxypropylcellulose) (HPC).
Setting [11] is: dose: 100.0 mg/kg/injection, schedule: Q01DX005 (ip), vehicle: Klucel (hydroxypropylcellulose) (HPC).
The mark [12] stands for this setting: dose: 100.0 mg/kg/injection, schedule: Q01DX009 (ip), vehicle: saline.
[13] abbreviates: dose: 200.0 mg/kg/injection, schedule: Q01DX009 (ip), vehicle: saline.
Setting [14] is: dose: 100.0 mg/kg/injection, schedule: Q01DX005 (ip), vehicle: saline with Tween-80.

Molecules are shown by their SMILES. Values joined by “and” are separate entries in the source; they are usually repeats but may differ in a detail not shown here. Equal entries are not always repeated. Toxic doses and inconclusive results are not listed.

For `O=NC1C2CCC(C2)C1N=O.[Co].[c-]1[c-][c-][cH-][c-]1` (centres undefined), the T/C runs as follows: (dose: 12.5 mg/kg/injection, schedule: Q01DX005 (ip), vehicle: saline with Tween-80) 96 % of control; under setting [1], 98 % of control; under setting [2], 98 % of control and 92 % of control.

Consider `Cc1ccc2ccc3ccc(CBr)nc3c2n1`, for which the T/C reads like this: (dose: 3.12 micromoles/kg, schedule: Q01DX005 (ip), vehicle: other) 110 % of control; (dose: 6.25 micromoles/kg, schedule: Q01DX005 (ip), vehicle: other) 99 % of control; (dose: 12.0 micromoles/kg, schedule: Q01DX005 (ip), vehicle: other) 111 % of control.

As to `NC(=S)N/N=C\C12CC3CC(CC(C3)C1)C2`, the T/C is 96 % of control under setting [3] and 108 % of control under setting [4].

As for `OCCNCCN=C1CCC(=NCCNCCO)CC1`, the T/C under setting [5] was 107 % of control and the T/C under setting [6] was 105 % of control.

Turning to `O=C(/C=C/c1ccccc1)NC1C=Nc2ccc(Cl)cc2NC1=O` (centres undefined), the T/C was 97 % of control under setting [7], 95 % of control under setting [8] and 97 % of control under setting [9].

Consider `CN(C)c1ncnc2c1ncn2CCn1cnc2c(N(C)C)ncnc21`, for which the T/C is 97 % of control (dose: 12.5 mg/kg/injection, schedule: Q01DX005 (ip), vehicle: Klucel (hydroxypropylcellulose) (HPC)); 100 % of control (dose: 25.0 mg/kg/injection, schedule: Q01DX005 (ip), vehicle: Klucel (hydroxypropylcellulose) (HPC)); 100 % of control and 90 % of control under setting [10]; 90 % of control under setting [11].

Turning to `C1CN1P1(N2CC2)=NP(N2CC2)(N2CC2)=NP(N2CC2)(N2CC2)=N1`, the T/C is, setting by setting: (dose: 5.0 mg/kg/injection, schedule: Q01DX009 (ip), vehicle: saline) 231 % of control; (dose: 10.0 mg/kg/injection, schedule: Q01DX009 (ip), vehicle: saline) 222 % of control; (dose: 20.0 mg/kg/injection, schedule: Q01DX009 (ip), vehicle: saline) 122 % of control.

Regarding `Nc1nc(F)nc2c1ncn2C1OC(CO)C(O)C1O` (centres undefined), the T/C reads like this: (dose: 53.0 mg/kg/injection, schedule: Q03HX024 (ip), vehicle: saline with Tween-80) 253 % of control; (dose: 80.0 mg/kg/injection, schedule: Q03HX024 (ip), vehicle: saline with Tween-80) 283 % of control; (dose: 120.0 mg/kg/injection, schedule: Q03HX024 (ip), vehicle: saline with Tween-80) 123 % of control.

As to `CC(=O)OCC(OC(C)=O)C(OC(C)=O)C(OC1OC(COC(C)=O)C(OC(C)=O)C(OC(C)=O)C1OC(C)=O)C(COC(C)=O)OC(C)=O` (centres undefined), the T/C was 97 % of control (dose: 50.0 mg/kg/injection, schedule: Q01DX005 (ip), vehicle: suspension in saline); 91 % of control (dose: 100.0 mg/kg/injection, schedule: Q01DX005 (ip), vehicle: suspension in saline); 99 % of control (dose: 200.0 mg/kg/injection, schedule: Q01DX005 (ip), vehicle: suspension in saline).

For `S=C(Nc1ccccc1)SCc1ccc(Cl)cc1`, the T/C reads like this: (dose: 50.0 mg/kg/injection, schedule: Q01DX009 (ip), vehicle: saline) 104 % of control; under setting [12], 103 % of control; under setting [13], 108 % of control.

`O=C1Nc2ccccc2C12OCCS2` (centres undefined): the T/C reads like this: under setting [7], 91 % of control; under setting [8], 98 % of control; under setting [9], 92 % of control.

With `CC(C)=CCC/C(C)=C/CC/C(C)=C/CS(=O)(=O)c1ccc(C)cc1`, the T/C by setting is: under setting [3], 105 % of control; under setting [4], 105 % of control; (dose: 200.0 mg/kg/injection, schedule: Q01DX009 (ip), vehicle: saline with Tween-80) 109 % of control.

Regarding `Cc1oc2ccccc2c(=O)c1CN1CCN(c2ccccc2)CC1`, the T/C was 103 % of control (dose: 60.0 mg/kg/injection, schedule: Q01DX005 (ip), vehicle: saline); 101 % of control (dose: 120.0 mg/kg/injection, schedule: Q01DX005 (ip), vehicle: saline); 92 % of control (dose: 240.0 mg/kg/injection, schedule: Q01DX005 (ip), vehicle: saline).

With `CN1CCC(C(=O)NNc2ccccc2)CC1`, the T/C is 100 % of control under setting [5]; 102 % of control under setting [6]; 102 % of control (dose: 200.0 mg/kg/injection, schedule: Q01DX005 (ip), vehicle: saline).

As to `CC1(C)C=C(O)C(=O)C(O)=C1`, the T/C runs as follows: (dose: 15.0 mg/kg/injection, schedule: Q01DX005 (ip), vehicle: Klucel (hydroxypropylcellulose) (HPC)) 102 % of control; (dose: 30.0 mg/kg/injection, schedule: Q01DX005 (ip), vehicle: Klucel (hydroxypropylcellulose) (HPC)) 102 % of control; under setting [10], 116 % of control; (dose: 60.0 mg/kg/injection, schedule: Q01DX005 (ip), vehicle: Klucel (hydroxypropylcellulose) (HPC)) 103 % of control.

On to `COc1nc(N(C)C)c2cnn(C3CCCCO3)c2n1` (centres undefined), for which the T/C is, setting by setting: (dose: 12.5 mg/kg/injection, schedule: Q04DX002 (ip), vehicle: saline with Tween-80) 102 % of control; (dose: 25.0 mg/kg/injection, schedule: Q04DX002 (ip), vehicle: saline with Tween-80) 97 % of control.

For `CNCCc1ccc(O)c(O)c1`, the T/C under setting [12] is 108 % of control and 118 % of control; the T/C under setting [13] is 111 % of control and 98 % of control; the T/C (dose: 400.0 mg/kg/injection, schedule: Q01DX009 (ip), vehicle: saline) was 116 % of control and 90 % of control.

On to `CCCCCCCCCCCCCCCC[N+](C)(C)CC#N`, for which the T/C runs as follows: (dose: 12.5 mg/kg/injection, schedule: Q01DX009 (ip), vehicle: saline) 100 % of control; (dose: 25.0 mg/kg/injection, schedule: Q01DX009 (ip), vehicle: saline) 89 % of control.

For `CC(C)C/C=N/N(C)C=O`, the T/C was 100 % of control (dose: 100.0 mg/kg/injection, schedule: Q04DX002 (ip), vehicle: saline); 100 % of control (dose: 200.0 mg/kg/injection, schedule: Q04DX002 (ip), vehicle: saline); 103 % of control (dose: 400.0 mg/kg/injection, schedule: Q04DX002 (ip), vehicle: saline).

With `COc1ccc(CCNC(=O)Cc2ccc(Cl)cc2)cc1OC`, the T/C under setting [7] is 99 % of control, the T/C under setting [8] is 97 % of control and the T/C under setting [9] was 92 % of control.

For the molecule `CCc1ccc[n+](-c2nc3c([O-])n(C)c(=O)n(C)c-3n2)c1`, the T/C runs as follows: (dose: 100.0 mg/kg/injection, schedule: Q04DX003 (ip), vehicle: saline) 91 % of control; (dose: 200.0 mg/kg/injection, schedule: Q04DX003 (ip), vehicle: saline) 100 % of control; (dose: 400.0 mg/kg/injection, schedule: Q04DX003 (ip), vehicle: saline) 94 % of control.

As for `N#Cc1c(-c2ccccc2)cn2c1[nH]c(=O)c1c3c(sc12)CCCC3`, the T/C under setting [7] was 88 % of control and 89 % of control; the T/C under setting [8] was 87 % of control; the T/C under setting [9] is 86 % of control and 87 % of control.

For `COc1cc(N=Nc2cc(CN(C)C)c(O)c3ncccc23)c(OC)cc1N=Nc1c(Cl)cc([N+](=O)[O-])cc1Cl`, the T/C was 104 % of control under setting [2]; 100 % of control under setting [14]; 109 % of control (dose: 200.0 mg/kg/injection, schedule: Q01DX005 (ip), vehicle: saline with Tween-80).

Consider `FC(F)(F)C1(C(F)(F)F)O[Si]2(OC(C(F)(F)F)(C(F)(F)F)c3ccccc32)c2ccccc21`, for which the T/C runs as follows: (dose: 25.0 mg/kg/injection, schedule: Q01DX005 (ip), vehicle: distilled water + Tween-80 + alcohol) 97 % of control; under setting [1], 105 % of control; (dose: 50.0 mg/kg/injection, schedule: Q01DX005 (ip), vehicle: distilled water + Tween-80 + alcohol) 96 % of control; under setting [2], 103 % of control; under setting [14], 105 % of control.

Turning to `CCCC(=O)OCC1OC(n2cnc3c(=S)nc[nH]c32)C(OC(=O)CCC)C1OC(=O)CCC` (centres undefined), the T/C by setting is: (dose: 6.25 mg/kg/injection, schedule: Q01DX009 (ip), vehicle: saline with Tween-80) 116 % of control; (dose: 12.5 mg/kg/injection, schedule: Q01DX009 (ip), vehicle: saline with Tween-80) 112 % of control; (dose: 25.0 mg/kg/injection, schedule: Q01DX009 (ip), vehicle: saline with Tween-80) 112 % of control; under setting [3], 116 % of control.

For the molecule `CCCCCCCC(=O)NC(CCSC)C(=O)O` (centres undefined), the T/C by setting is: under setting [10], 107 % of control; under setting [11], 88 % of control; (dose: 200.0 mg/kg/injection, schedule: Q01DX005 (ip), vehicle: Klucel (hydroxypropylcellulose) (HPC)) 104 % of control.

Values taken from PubChem BioAssay AID330 (DTP/NCI, 2004).
